Test results reported in publication PMC6987128, “Target protein-oriented isolation of Hes1 dimer inhibitors using protein based methods” (Scientific Reports, 2020).

Tested on: C17.2 mouse neural stem cells
Experiment: Neural stem cell differentiation assay (Tuj1/GFAP immunofluorescence staining)
Format: cell-based
Settings: C17.2 cells, 6 days; for increase of neurons compared to control: vs DMSO control
Source text: We recently developed another protein-based screening method, the target protein oriented natural products isolation method (TPO-NAPI) using protein beads (Fig. 2B). Agalloside, inohanamine, α-mangostine, BE-14106, isomicromonolactam, staurosporin and linarin were isolated as Hes1 binding compounds using the TPO-NAPI method[15],[17]. Rat Hes1 (1–95) containing basic and helix-loop-helix domains was immobilized because the helix-loop-helix domain is known to be important for Hes1-Hes1 interaction; therefore, utilizing this domain in the beads method would likely be effective for screening Hes1 dimer inhibitors. GST-Hes1 immobilized beads were prepared by mixing freshly prepared GST-Hes1 protein with glutathione Sepharose 4B beads. GST-only beads were prepared as a control. After incubating the beads with plant MeOH extracts at 4 °C for 2 h, bound compounds were eluted by adding EtOH and heating at 100 °C for 3 min, then the eluted compounds were analyzed by HPLC. […] The MeOH extract (64.6 g) of Terminalia chebula bark was partitioned with hexane, EtOAc and BuOH to obtain hexane (1.5 g), EtOAc (3.6 g), BuOH (42.6 g), and aqueous (20.5 g) soluble fractions. The EtOAc fraction contained the target peak and was subjected to silica gel column chromatography to give eight fractions (1A-H). Fraction 1D contained the target peak and was separated by ODS column chromatography and reverse-phase HPLC to give compound 11 (0.4 mg). Compound 11 was identified as 4-O-(4″-O-galloyl-α-L-rhamnopyranosyl)ellagic acid by comparison of its NMR data with reported spectral data[37]. […] This is the strongest Hes1 dimer inhibitor reported to date. The ability of 11 to accelerate the differentiation of C17.2 mouse neural stem cells was evaluated (Fig. 5). C17.2 cells (2 × 10^5 cells/mL) were seeded in a poly-L-lysine-coated 24 well plates and incubated for 24 h, then the cells were treated with DMSO (control), 100 μM valproic acid (VPA), 5 μM retinoic acid (RA) (positive controls) or 11 (1 or 5 μM) for 6 days. A confocal microscope was used to obtain images of differentiated neural cells after immunostaining class III β-tubulin (Tuj1) in neurons, and glial fibrillary acidic protein (GFAP) in astrocytes and nuclei (TO-PRO-3). […] In contrast, the control dish containing cells treated with DMSO contained small number of neurons.
C17.2 cells were cultured in proliferation medium [DMEM (DS Pharma Biomedical Co., Ltd. Osaka, Japan) supplemented with 10% fetal bovine serum (Biowest, Nuaillé, France), 5% horse serum (Gibco, Life Technologies, Tokyo, Japan)]. Neural differentiation of C17.2 cells was initiated by transferring the cells to differentiation medium [Neurobasal Medium (Gibco) supplemented with 2% B-27 without vitamin A (Gibco), 1% antibiotic-antimycotic (Gibco)]. All cultures were maintained in a humidified incubator at 37 °C in 5% CO2/95% air.
C17.2 cells were dissociated using the proliferation medium 2 × 10^5 cells/mL on cover glass (MATSUNAMI GLASS) coated with poly-L-lysine and fibronectin/laminin. After incubation for 24 h, cells were washed with D-MEM and treated with individual compounds in differentiation medium for 6 days.
C17.2 cells were fixed with 4% paraformaldehyde in PBS for 20 min at room temperature (r.t.) and washed with 1% BSA in PBS three times. After blocking with 10% BSA in 0.3% Triton X-100 in PBS for 45 min at r.t., fixed cells were incubated with primary antibodies (anti-βIII-Tubulin; Neuronal Class III, Mouse-Mono, 1:400, R&D Systems^TM; anti-GFAP, 1:400, VERITAS) for 12 h at 4 °C. After washing three times with 1% BSA in PBS (500 μL/well), cells were incubated with secondary antibodies (Alexa Fluor® 488 goat anti-mouse IgG (H + L), 1:400, Life Technologies; Alexa Fluor® 555 goat ant-rabbit IgG (H + L), 1:200, Life Technologies) for 1 hr at r.t. in the dark. […]

For `CC1OC(Oc2cc3c(=O)oc4c(O)c(O)cc5c(=O)oc(c2O)c3c45)C(O)C(O)C1OC(=O)c1cc(O)c(O)c(O)c1` [Compound 11, 4-O-(4″-O-galloyl-α-L-rhamnopyranosyl)ellagic acid], which differentiated neurons (1 µM) is on record?
Its differentiated neurons is 33.6%.

And the “increase of neurons compared to control” value (1 µM)?
The value was 67%.

What about the differentiated neurons (5 µM) of the same molecule?
The differentiated neurons was 45.4%.

What about the “increase of neurons compared to control” value (5 µM) of the same molecule?
Its value is 125%.
